# Laboratory results reported in patent US9540391B2, “Isomannide derivatives as inhibitors of soluble epoxide hydrolase” (SANOFI, priority 2013, dated 2017).
# Structures can show the parent of a compound that is named as a salt.
# Biological target: T1, recombinant sEH (Homo sapiens, UniProt P34913)
# T1 construct: made in house; host or cells: Sf9 insect cells
# T1 sequence (P34913 1-555): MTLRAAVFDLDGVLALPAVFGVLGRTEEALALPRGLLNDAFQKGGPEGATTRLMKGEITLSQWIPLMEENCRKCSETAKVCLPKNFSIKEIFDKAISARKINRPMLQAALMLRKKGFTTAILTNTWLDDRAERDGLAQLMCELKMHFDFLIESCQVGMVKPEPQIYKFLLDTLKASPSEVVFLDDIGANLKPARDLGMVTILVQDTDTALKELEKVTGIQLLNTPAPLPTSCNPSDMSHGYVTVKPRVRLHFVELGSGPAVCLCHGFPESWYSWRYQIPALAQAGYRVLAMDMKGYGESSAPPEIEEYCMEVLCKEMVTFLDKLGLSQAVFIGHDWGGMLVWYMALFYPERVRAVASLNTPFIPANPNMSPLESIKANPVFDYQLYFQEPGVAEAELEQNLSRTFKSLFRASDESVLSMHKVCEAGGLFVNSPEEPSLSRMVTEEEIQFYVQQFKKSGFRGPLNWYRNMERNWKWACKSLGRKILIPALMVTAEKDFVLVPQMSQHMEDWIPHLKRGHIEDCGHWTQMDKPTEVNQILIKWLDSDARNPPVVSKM
# Test: biochemical screening assay for inhibition of soluble epoxide hydrolase (fluorometric, Phome substrate)
# Procedure: The ability of the compounds of the formula I to inhibit soluble epoxide hydrolase can be determined as follows:
# Compounds were tested in a biochemical screening assay using recombinant sEH purified from Sf9 insect cells and an artificial substrate, (3-phenyl-oxiranyl)-acetic acid cyano-(6-methoxy-naphtalen-2-yl)-methyl ester, Phome. The biochemical assay was performed in analogy to a fluorometric method described in the literature (P. D. Jones et al., Anal. Biochem. 2005, 343, 66-75). The assay principle bases on the sEH-catalyzed hydrolysis of an artificial α-cyano-ester substrate. 0-deacetylation liberates a cyanohydrin intermediate that rapidly decomposes to the highly fluorescent 6-methoxy-2-naphtaldehyde. To discriminate sample autofluorescence, the assay was carried out as a kinetic measurement with two time points. The first measurement is performed immediately before addition of the substrate and the second measurement is done after completion of the assay. The assay format is either in 96- or in 384-well format. Details of the assay using a 96-well plate format are described below. 40 μL recombinant sEH enzyme and 5 μL test compound are pre-incubated for 15 minutes at 30° C. Following pre-incubation, the reaction is started by addition of 5 μL Phome. The assay mixture containing 2 nM final sEH concentration, test compound ranging in a concentration from 0.0001-10 μM and 5 μM Phome is incubated for 60 minutes at 30° C.
# Fluorescence can be measured with any suitable detector for instance a TECAN Safire or Tecan Ultra at […]. % inhibition of recombinant sEH activity is used for calculation of corresponding IC50 values as illustrated and described in the examples.
# The NCBI gene bank reference sequence with the accession number NM_001979 for EPHX2/sEH was applied for recombinant protein production:
# The following commercially available materials have been used: • Incubation reagent: 25 mM Hepes (Sigma-Aldrich, Cat. No H-3375), 0.01% bovine albumin (Sigma-Aldrich Cat. No PA9205) • Substrate: 3-Phenyl-oxiranyl)-acetic acid cyano-(6-methoxy-naphtalen-2-yl)-methyl ester, Phome (Biozol Cat. No 10003134) • Microtiter plates: 96-well plates (Greiner Cat. No 655180; Costar Cat. No 3915)
row,Structure (SMILES),IC50 [nM]
1,"Cc1ccc(S[C@H]2CO[C@H]3[C@@H]2OC[C@@H]3NC(=O)NC2CCCCC2)nn1 [Example 57, 1-Cyclohexyl-3-[(3S,3aR,6S,6aS)-6-(6-methyl-pyridazin-3-ylsulfanyl)-hexahydro-furo[3,2-b]furan-3-yl]-urea]",3
2,"N#Cc1ccc(S[C@H]2CO[C@H]3[C@@H]2OC[C@@H]3NC(=O)NC2CCCCC2)nc1 [Example 60, 1-[(3S,3aR,6S,6aS)-6-(5-Cyano-pyridin-2-ylsulfanyl)-hexahydro-furo[3,2-b]furan-3-yl]-3-cyclohexyl-urea]",4
3,"O=C(NC1CCCCC1)N[C@H]1CO[C@H]2[C@@H]1OC[C@@H]2Oc1ccc(N2CCC(F)(F)CC2)nc1 [Example 71, 1-Cyclohexyl-3-[(3S,3aR,6S,6aS)-6-(4,4-difluoro-3,4,5,6-tetrahydro-2H-[1,2′]bipyridinyl-5′-yloxy)-hexahydro-furo[3,2-b]furan-3-yl]-urea]",7
4,"O=C(NC1CCCCC1)N[C@H]1CO[C@H]2[C@@H]1OC[C@@H]2Oc1ccc(N2CCOCC2)nc1 [Example 73, 1-Cyclohexyl-3-[(3S,3aR,6S,6aS)-6-(6-morpholin-4-yl-pyridin-3-yloxy)-hexahydro-furo[3,2-b]furan-3-yl]-urea]",4
5,"O=C(NC1CCCCC1)N[C@H]1CO[C@H]2[C@@H]1OC[C@@H]2S(=O)(=O)C1CCCCC1 [Example 74, 1-((3S,3aR,6S,6aS)-6-cyclohexanesulfonyl-hexahydro-furo[3,2-b]furan-3-yl)-3-cyclohexyl-urea]",5
6,"O=C(NC1CCCCC1)N[C@H]1CO[C@H]2[C@@H]1OC[C@@H]2Oc1cccc(N2CCCCC2)c1 [Example 75, 1-cyclohexyl-3-[(3S,3aR,6S,6aS)-6-(3-piperidin-1-yl-phenoxy)-hexahydro-furo[3,2-b]furan-3-yl]-urea]",2
7,"Cc1ncccc1O[C@H]1CO[C@H]2[C@@H]1OC[C@@H]2NC(=O)NC1CCCCC1 [Example 76, 1-cyclohexyl-3-[(3S,3aR,6S,6aS)-6-(2-methyl-pyridin-3-yloxy)-hexahydro-furo[3,2-b]furan-3-yl]-urea]",2
8,"O=C(NC1CCC(F)(F)CC1)N[C@H]1CO[C@H]2[C@@H]1OC[C@@H]2Oc1ccc(F)cc1 [Example 77, 1-(4,4-difluoro-cyclohexyl)-3-[(3S,3aR,6S,6aS)-6-(4-fluoro-phenoxy)-hexahydro-furo[3,2-b]furan-3-yl]-urea]",17
9,"COC1COCCC1NC(=O)N[C@H]1CO[C@H]2[C@@H]1OC[C@@H]2Oc1cccnc1C (stereo partly drawn) [Example 78, 1-(3-methoxy-tetrahydro-pyran-4-yl)-3-[(3S,3aR,6S,6aS)-6-(2-methyl-pyridin-3-yloxy)-hexahydro-furo[3,2-b]furan-3-yl]-urea; hydrochloride]",1330
10,"CCOC1COCCC1NC(=O)N[C@H]1CO[C@H]2[C@@H]1OC[C@@H]2Oc1cccnc1C (stereo partly drawn) [Example 79, 1-(3-ethoxy-tetrahydro-pyran-4-yl)-3-[(3S,3aR,6S,6aS)-6-(2-methyl-pyridin-3-yloxy)-hexahydro-furo[3,2-b]furan-3-yl]-urea; hydrochloride]",987
11,"Cc1ncccc1O[C@H]1CO[C@H]2[C@@H]1OC[C@@H]2NC(=O)NC1COC(C)(C)OC1 [Example 80, 1-(2,2-dimethyl-[1,3]dioxan-5-yl)-3-[(3S,3aR,6S,6aS)-6-(2-methyl-pyridin-3-yloxy)-hexahydro-furo[3,2-b]furan-3-yl]-urea]",1160
12,"Cc1ncccc1O[C@H]1CO[C@H]2[C@@H]1OC[C@@H]2NC(=O)NC1CCCN(C(=O)OC(C)(C)C)C1 (stereo partly drawn) [Example 81, 3-{3-[(3S,3aR,6S,6aS)-6-(2-methyl-pyridin-3-yloxy)-hexahydro-furo[3,2-b]furan-3-yl]-ureido}-piperidine-1-carboxylic acid tert-butyl ester]",16

# Further lines, results first:
row,IC50 [nM],Structure (SMILES)
1,2,"O=C(NC1CCCCC1)N[C@H]1CO[C@H]2[C@@H]1OC[C@@H]2Sc1nccs1 [Example 56, 1-Cyclohexyl-3-[(3S,3aR,6S,6aS)-6-(thiazol-2-ylsulfanyl)-hexahydro-furo[3,2-b]furan-3-yl]-urea]"
2,2,"Cc1csc(S[C@H]2CO[C@H]3[C@@H]2OC[C@@H]3NC(=O)NC2CCCCC2)n1 [Example 58, 1-Cyclohexyl-3-[(3S,3aR,6S,6aS)-6-(4-methyl-thiazol-2-ylsulfanyl)-hexa-hydro-furo[3,2-b]furan-3-yl]-urea]"
3,2,"Cc1ccc(S[C@H]2CO[C@H]3[C@@H]2OC[C@@H]3NC(=O)NC2CCCCC2)nc1 [Example 59, 1-Cyclohexyl-3-[(3S,3aR,6S,6aS)-6-(5-methyl-pyridin-2-ylsulfanyl)-hexa-hydro-furo[3,2-b]furan-3-yl]-urea]"
4,< 1,"Cc1cc(S[C@H]2CO[C@H]3[C@@H]2OC[C@@H]3NC(=O)NC2CCCCC2)nc(C)n1 [Example 61, 1-Cyclohexyl-3-[(3S,3aR,6S,6aS)-6-(2,6-dimethyl-pyrimidin-4-ylsulfanyl)-hexahydro-furo[3,2-b]furan-3-yl]-urea]"
5,1,"Cc1nc(S[C@H]2CO[C@H]3[C@@H]2OC[C@@H]3NC(=O)NC2CCCCC2)sc1C [Example 62, 1-Cyclohexyl-3-[(3S,3aR,6S,6aS)-6-(4,5-dimethyl-thiazol-2-ylsulfanyl)-hexahydro-furo[3,2-b]furan-3-yl]-urea]"
6,1,"O=C(NC1CCCCC1)N[C@H]1CO[C@H]2[C@@H]1OC[C@@H]2Sc1ccc(Cl)cn1 [Example 63, 1-[(3S,3aR,6S,6aS)-6-(5-Chloro-pyridin-2-ylsulfanyl)-hexahydro-furo[3,2-b]furan-3-yl]-3-cyclohexyl-urea]"
7,2,"O=C(NC1CCCCC1)N[C@H]1CO[C@H]2[C@@H]1OC[C@@H]2Oc1cnc(Cl)c(F)c1 [Example 64, 1-[(3S,3aR,6S,6aS)-6-(6-Chloro-5-fluoro-pyridin-3-yloxy)-hexahydro-furo[3,2-b]furan-3-yl]-3-cyclohexyl-urea]"
8,2,"Cc1cc(O[C@H]2CO[C@H]3[C@@H]2OC[C@@H]3NC(=O)NC2CCCCC2)cnc1Cl [Example 65, 1-[(3S,3aR,6S,6aS)-6-(6-Chloro-5-methyl-pyridin-3-yloxy)-hexahydro-furo[3,2-b]furan-3-yl]-3-cyclohexyl-urea]"
9,2,"Cc1cc(Cl)ncc1O[C@H]1CO[C@H]2[C@@H]1OC[C@@H]2NC(=O)NC1CCCCC1 [Example 66, 1-[(3S,3aR,6S,6aS)-6-(6-Chloro-4-methyl-pyridin-3-yloxy)-hexahydro-furo[3,2-b]furan-3-yl]-3-cyclohexyl-urea]"
10,1,"Cc1cc(O[C@H]2CO[C@H]3[C@@H]2OC[C@@H]3NC(=O)NC2CCCCC2)cc(C)n1 [Example 67, 1-Cyclohexyl-3-[(3S,3aR,6S,6aS)-6-(2,6-dimethyl-pyridin-4-yloxy)-hexa-hydro-furo[3,2-b]furan-3-yl]-urea]"
11,2,"CC(C)(O)c1cncc(O[C@H]2CO[C@H]3[C@@H]2OC[C@@H]3NC(=O)NC2CCCCC2)c1 [Example 68, 1-cyclohexyl-3-{(3S,3aR,6S,6aS)-6-[5-(1-hydroxy-1-methyl-ethyl)-pyridin-3-yloxy]-hexahydro-furo[3,2-b]furan-3-yl}-urea; hydrochloride]"
12,2,"CCC(O)(CC)c1cncc(O[C@H]2CO[C@H]3[C@@H]2OC[C@@H]3NC(=O)NC2CCCCC2)c1 [Example 69, 1-cyclohexyl-3-{(3S,3aR,6S,6aS)-6-[5-(1-ethyl-1-hydroxy-propyl)-pyridin-3-yloxy]-hexahydro-furo[3,2-b]furan-3-yl}-urea]"
13,1,"O=C(NC1CCCCC1)N[C@H]1CO[C@H]2[C@@H]1OC[C@@H]2Oc1ccc(N2CCCC2)nc1 [Example 70, 1-cyclohexyl-3-[(3S,3aR,6S,6aS)-6-(6-pyrrolidin-1-yl-pyridin-3-yloxy)-hexahydro-furo[3,2-b]furan-3-yl]-urea]"
14,< 1,"CCN(CC)c1ccc(O[C@H]2CO[C@H]3[C@@H]2OC[C@@H]3NC(=O)NC2CCCCC2)cn1 [Example 72, 1-Cyclohexyl-3-[(3S,3aR,6S,6aS)-6-(6-diethylamino-pyridin-3-yloxy)-hexa-hydro-furo[3,2-b]furan-3-yl]-urea]"
